# Experimental data reported in patent publication US20040048243A1, “Methods and compositions for in vitro targeting” (priority 2003, published 2004).
# No end group written: not given here.
# How the values were obtained:
# CD13 = target: T1, CD13 (Sus scrofa, UniProt P15145); test: Peptide competition of angiostatin binding to CD13; settings: up to 500 μg of peptide; not shown
# T1 construct: purchased Sigma, St Louis, Mo; L-9776
# T1 sequence (P15145 2-963 limits assumed): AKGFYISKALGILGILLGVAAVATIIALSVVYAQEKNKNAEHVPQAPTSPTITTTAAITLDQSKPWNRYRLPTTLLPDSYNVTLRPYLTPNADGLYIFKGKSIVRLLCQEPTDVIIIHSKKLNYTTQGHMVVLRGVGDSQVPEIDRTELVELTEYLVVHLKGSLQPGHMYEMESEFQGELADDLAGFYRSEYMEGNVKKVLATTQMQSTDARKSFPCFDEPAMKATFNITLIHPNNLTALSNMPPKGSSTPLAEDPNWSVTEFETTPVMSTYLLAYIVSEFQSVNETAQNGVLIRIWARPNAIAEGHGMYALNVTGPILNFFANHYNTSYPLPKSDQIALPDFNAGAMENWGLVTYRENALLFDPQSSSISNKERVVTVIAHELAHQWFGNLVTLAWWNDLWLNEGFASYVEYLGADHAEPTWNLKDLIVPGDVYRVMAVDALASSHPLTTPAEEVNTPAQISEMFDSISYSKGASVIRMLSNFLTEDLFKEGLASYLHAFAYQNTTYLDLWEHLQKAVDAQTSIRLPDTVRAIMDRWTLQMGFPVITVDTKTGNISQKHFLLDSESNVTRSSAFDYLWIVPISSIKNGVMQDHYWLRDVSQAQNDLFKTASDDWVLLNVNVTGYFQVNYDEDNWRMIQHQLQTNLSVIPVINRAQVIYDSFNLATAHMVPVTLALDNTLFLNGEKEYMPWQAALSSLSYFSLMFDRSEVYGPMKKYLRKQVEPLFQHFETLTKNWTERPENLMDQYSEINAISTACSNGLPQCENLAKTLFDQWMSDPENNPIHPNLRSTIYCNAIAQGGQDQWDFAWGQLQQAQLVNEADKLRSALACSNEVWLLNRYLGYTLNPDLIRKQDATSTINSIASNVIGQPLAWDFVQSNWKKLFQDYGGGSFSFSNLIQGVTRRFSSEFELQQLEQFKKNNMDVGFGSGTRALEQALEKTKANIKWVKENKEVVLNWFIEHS
# Procedure: To assess protein-protein interactions, 100 ng/well of protein was coated in triplicate in 96-well plates. The plates were dried at 37° C., blocked with PBS and 3% BSA, and incubated with 10 μg/ml of rhAngiostatin in PBS+1% BSA for three hours at RT. The wells were washed three times with PBS, 3% BSA, 0.01% Tween 20 before incubation with anti-rhAngiostatin antibody (R&D Systems, Inc #AF226) at 1 μg/ml for 1 hour at RT. The wells were then washed three times with PBS, 3% BSA, 0.01% Tween 20 and incubated with […] anti-goat antibody. After washing 3 times with PBS, 0.01% Tween 20 and once with PBS, the wells were developed with p-nitrophenyl phosphate. Binding of alkaline phosphate conjugate was detected colorimetrically at […]. using an ELISA microplate reader.
# Binding of angiostatin to CD13 was competitive with the NGR peptide (Burg et al., 1999) in a dose-dependent manner (not shown). Control experiments were run with the CARAC peptide (SEQ ID NO: 169) (not shown). Binding of angiostatin to CD13 was inhibited by more than 50% by 0.5 μg of NGR peptide, while binding was unaffected by up to 500 μg of CARAC peptide (SEQ ID NO: 169) (not shown).
# [1] = tested on: cells infected by targeted phage vectors; test: Enhancement of phage transduction by genotoxic agents or genetic trans-complementation; type: cell-based; settings: genotoxic drug 10 μM added 36 hours after infection, analysis at 72 hours post-infection
# Procedure: Semi-confluent cells were infected with 10^5 TU of phage per cell for 4 hours in serum free media, after which fresh medium supplemented with FCS was added (no phage were washed out or removed). In some experiments, a phage admixture of forward and reverse clones at 10^10 TU (forward/reverse molar ratio=1) was tested. Next, cells were incubated for 36 hours followed by the addition of genotoxic drugs (topotecan, 10 μM; cisplatin, 10 μM) or administration of UV radiation (15 J/m^2) with a cross-linker apparatus (UV Stratalinker Model 2400; Stratagene). At 72 hours post-infection, the cells were analyzed for transduction of a reporter gene (β-gal or GFP), and gene expression was normalized per cell number relative to controls.
# MDA-MB435 cells = test: Inhibition of RGD-4C-β-gal phage transduction by synthetic peptides; type: cell-based, human; settings: target cells pre-incubated with synthetic peptide; dose-dependent
# Procedure: (§1) In the peptide inhibition experiments, MDA-MB435 cells were cultured on 12-well plates and then incubated with 10 μg of RGD-4C peptide (SEQ ID NO: 166) or control peptides (CARAC, SEQ ID NO: 169 or CKDRFERC, SEQ ID. NO: 59) in normal growth media for 30 minutes. KS1767 cells were grown on 12-well plates and then incubated with 40 μg CTTHWGFTLC (SEQ D NO: 167) or control peptides in normal growth media for 30 minutes. After this the growth media were replaced by 500 μl of MEM containing 2% FCS and 5×10^10 transducing units (TU) of either RGD-4C-β-gal, HWGF-β-gal, or control fd-β-gal phage. Phage vectors were incubated on peptide-treated cells (three hours at 37° C., 5% CO2) followed by a media change to MEM plus 10% FCS. Transduced cells were then maintained in a cell incubator for 72 hours (37° C., 5% CO2).
# (§2) In the peptide inhibition assays, β-gal activity in cell lysates was detected by the Galacto-Star® chemiluminescent reporter gene system (Tropix, Bedford, Mass.) according to the manufacturer's protocol. […] Cells were analyzed for GFP gene expression at 72 hours post infection. For GFP detection, cells were analyzed by fluorescence activated cell sorting (FACS) in a FACScan (Becton-Dickinson, San Jose, Calif.) or counted and photographed under a fluorescence microscope (Nikon).
# KS1767 cells = test: Inhibition of HWGF-β-gal phage transduction by synthetic peptides; type: cell-based, human; settings: target cells pre-incubated with synthetic peptide; dose-dependent
# Procedure: as §1, §2
# [2] = tested on: tumor-associated antigens in tissue sections from bone marrow metastasis; test: Immunohistological staining with antibodies against peptide C; type: binding, human; settings: antibodies pre-incubated with GST-peptide C
# Procedure: GST-fusion proteins containing the peptide sequence from patient C were coated on multi-well plates. After incubating the plates with the patient's serum, the plates were washed. The bound IgG antibodies were eluted with 50 μl of 0.1 M glycine buffer, pH 2.2, neutralized by addition of 10 μl 1 M Tris pH 9.0, and dialyzed in PBS overnight followed by concentration of the antibody using Centricon-30 (Millipore) filters. The purified antibody (500 μg) was coupled to biotin according to the manufacturer's instructions (Vector). The biotinylated antibody was analyzed by SDS-gel electrophoresis.
# Paraffin sections from patient C were stained with purified biotinylated antibodies and peptide antibodies by immunoperoxidase detection using the Dako antigen retrieval kit and DAB as a substrate. All of the sections (4 μm) were counter-stained with hematoxylin. The biotinylated immunopurified antibodies were used at a dilution of 1:100. Peptide C antibodies and purified pre-immune antibodies were used at 0.01 μg/μl. For the inhibition staining, peptide C antibodies were pre-incubated for 30 minutes at room temperature with the GST-peptide C (500μg) prior to staining. Peptide antibodies were generated in rabbits and purified using a T-gel immunoglobulin purification kit and protein G column (Pierce).
# CD13 (Aminopeptidase N) = test: competition against rhAngiostatin binding to coated CD13, 0.5 µg peptide; not shown
# bovine serum albumin = target: T2, bovine serum albumin (bovine, UniProt P02769 25-607); test: phage binding assay (FIG. 22)
# T2 construct: control protein coated on wells; also called BSA
# T2 sequence (P02769 25-607 limits assumed): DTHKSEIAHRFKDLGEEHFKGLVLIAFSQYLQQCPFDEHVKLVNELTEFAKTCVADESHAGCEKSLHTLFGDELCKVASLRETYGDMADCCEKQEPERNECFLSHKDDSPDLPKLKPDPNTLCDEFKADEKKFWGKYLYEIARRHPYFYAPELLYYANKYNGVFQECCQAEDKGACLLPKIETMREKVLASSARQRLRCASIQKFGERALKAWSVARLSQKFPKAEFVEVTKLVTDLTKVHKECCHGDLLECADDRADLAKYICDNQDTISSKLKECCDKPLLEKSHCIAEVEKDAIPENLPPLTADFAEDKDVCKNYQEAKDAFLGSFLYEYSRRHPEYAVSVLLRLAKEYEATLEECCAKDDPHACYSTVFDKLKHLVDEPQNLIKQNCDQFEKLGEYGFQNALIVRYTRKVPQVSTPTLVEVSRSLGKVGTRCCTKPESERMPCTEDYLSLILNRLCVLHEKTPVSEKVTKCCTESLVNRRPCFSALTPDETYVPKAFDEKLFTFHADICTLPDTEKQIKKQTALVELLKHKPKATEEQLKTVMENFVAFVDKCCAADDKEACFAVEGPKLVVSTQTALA
molecule,measurement,setting,value
"O=c1[nH]cc(F)c(=O)[nH]1 [CARAC peptide, CARAC]",effect on binding of angiostatin to CD13,CD13,unaffected
CC[C@@]1(O)C(=O)OCc2c1cc1n(c2=O)Cc2cc3c(CN(C)C)c(O)ccc3nc2-1 [topotecan],gene transduction by targeted phage vectors relative to controls,[1],several fold higher
CDCRGDCFC [RGD4C peptide],inhibition of RGD-4C-β-gal phage transduction,MDA-MB435 cells,greater than 99%
CTTHWGFTLC,inhibition of HWGF-β-gal phage transduction,KS1767 cells,greater than 90%
GST-fusion protein containing peptide C: GST-fusion protein containing peptide C (CNVSDKSC; cysteine pairing not given here; also: fused to GST),inhibition of anti-peptide C staining,[2],completely inhibited
"NGR peptide (Burg et al., 1999)",percent inhibition of angiostatin binding to CD13,CD13 (Aminopeptidase N),> 50%
CVPELGHEC (cysteine pairing not given here; also: displayed on phage) [phage bearing the sequence CVPELGHEC],binding result,bovine serum albumin,no binding
